Patent US20060135589A1, “1h-Indazole-3-carboxamide compounds as cyclin dependent kinase (cdk) inhibitors” (Astex Technology, Inc., priority 2002, published 2006)

The compounds below were run against T1, CDK2/CyclinA (Homo sapiens, UniProt P24941) (assay: Measurement of CDK2 kinase inhibitory activity (IC50), 33P-ATP / histone H1 filter assay).
T1 construct: purchased Upstate Biotechnology
Assay type: biochemical
Description: Measurement of CDK2 Kinase Inhibitory Activity (IC50)
Compounds of the invention were tested for kinase inhibitory activity using the following protocol.
1.7 μl of active CDK2/CyclinA (Upstate Biotechnology, 10 U/μl) is diluted in assay buffer (250 μl of 10× strength assay buffer (200 mM MOPS pH 7.2, 250 mM β-glycerophosphate, 50 mM EDTA, 150 mM MgCl2), 11.27 μl 10 mM ATP, 2.5 μl 1M DTT, 25 μl 100 mM sodium orthovanadate, 708.53 μl H2O), and 10 μl mixed with 10 μl of histone substrate mix (60 μl bovine histone H1 (Upstate Biotechnology, 5 mg/ml), 940 μl H2O, 35 μCi γ^33P-ATP) and added to 96 well plates along with 5 μl of various dilutions of the test compound in DMSO (up to 2.5%). The reaction is allowed to proceed for 5 hours before being stopped with an excess of ortho-phosphoric acid (30 μl at 2%).
γ^33P-ATP which remains unincorporated into the histone H1 is separated from phosphorylated histone H1 on a Millipore MAPH filter plate. The wells of the MAPH plate are wetted with 0.5% orthophosphoric acid, and then the results of the reaction are filtered with a Millipore vacuum filtration unit through the wells. Following filtration, the residue is washed twice with 200 μl of 0.5% orthophosphoric acid. Once the filters have dried, 25 μl of Microscint 20 scintillant is added, and then counted on a Packard Topcount for 30 seconds.

| SMILES | inhibition at 50 µM |
| --- | --- |
| O=C(Nc1ccccc1)c1n[nH]c2ccc(Cl)cc12 [Example 49] | ≥ 50% |
| Cc1ccc(NC(=O)c2n[nH]c3ccc(I)cc23)nn1 [Example 50] | ≥ 50% |
| CCc1nnc(NC(=O)c2n[nH]c3ccc(Cl)cc23)s1 [Example 51] | ≥ 50% |
| O=C(Nc1ccc(N2CCOCC2)cc1)c1n[nH]c2ccc(I)cc12 [Example 52] | ≥ 50% |
| O=C(Nc1ccc[nH]c1=O)c1n[nH]c2ccc(I)cc12 [Example 53] | ≥ 50% |
| O=C(Nc1ccc(N2CCOCC2)cc1)c1n[nH]c2ccccc12 [Example 54] | ≥ 50% |
| O=C(Nc1ccccc1)c1n[nH]c2ccc([N+](=O)[O-])cc12 [Example 55] | ≥ 50% |
| O=C(Nc1ccc(Cl)nc1)c1n[nH]c2ccc(I)cc12 [Example 56] | ≥ 50% |
| CC(C)(C)OC(=O)N1CCC(NC(=O)c2n[nH]c3ccccc23)CC1 [Example 57] | ≥ 50% |
| O=C(Nc1ccc(F)cc1)c1n[nH]c2ccc(I)cc12 [Example 58] | ≥ 50% |
| CC(=O)Nc1ccc(NC(=O)c2n[nH]c3ccc(I)cc23)cn1 [Example 59] | ≥ 50% |
| Nc1ccc2[nH]nc(C(=O)Nc3ccccc3)c2c1 [Example 60, 5-Amino-1H-indazole-3-carboxylic acid phenylamide] | ≥ 50% |
| CNS(=O)(=O)Cc1ccc(NC(=O)c2n[nH]c3ccc(NC(=O)NCCCl)cc23)cc1 [Example 63, 5-[3-(2-Chloro-ethyl)-ureido]-1H-indazole-3-carboxylic acid (4-methylsulphamoylmethyl-phenyl)-amide] | ≥ 50% |
| O=C(NC1CCNCC1)c1n[nH]c2ccc(I)cc12 [Example 64, 5-Iodo-1H-indazole-3-carboxylic acid piperidin-4-ylamide] | ≥ 50% |
| CC(=O)NCc1ccc(NC(=O)c2n[nH]c3ccc(Cl)cc23)cc1 [Example 65, 5-Chloro-1H-indazole-3-carboxylic acid [4-(acetylamino-methyl)-phenyl]-amide] | ≥ 50% |
| O=C(NC1CCN(C(=O)C(F)(F)F)CC1)c1n[nH]c2ccccc12 [Example 66, 1H-Indazole-3-carboxylic acid [1-(2,2,2 trifluoro-acetyl)-Piperidin-4-yl]-amide] | ≥ 50% |
| O=C(NC1CCNCC1)c1n[nH]c2ccccc12 [Example 67, 1H-Indazole-3-carboxylic acid piperidin-4-ylamide] | ≥ 50% |
| CC(=O)N1CCC(NC(=O)c2n[nH]c3ccccc23)CC1 [Example 68, 1H-Indazole-3-carboxylic acid (1-acetyl-piperidin-4-yl)-amide] | ≥ 50% |
| CS(=O)(=O)N1CCC(NC(=O)c2n[nH]c3ccccc23)CC1 [Example 69, 1H-Indazole-3-carboxylic acid (1-methanesulphonyl-piperidin-4-yl)-amide] | ≥ 50% |
| O=C(Nc1ccc(F)cc1)c1n[nH]c2ccccc12 [Example 70, 1H-Indazole-3-carboxylic acid (4-fluoro-phenyl)-amide] | ≥ 50% |
| O=C(Nc1ccc(F)cc1)c1n[nH]c2cccc(Br)c12 [Example 71, 4-Bromo-1H-indazole-3-carboxylic acid (4-fluoro-phenyl)-amide] | ≥ 50% |
| Cc1ccc2[nH]nc(C(=O)Nc3ccc(F)cc3)c2c1 [Example 72, 5-Methyl-1H-indazole-3-carboxylic acid (4-fluoro-phenyl)-amide] | ≥ 50% |
| O=C(Nc1ccc(F)cc1)c1n[nH]c2cc(Br)ccc12 [Example 73, 6-Bromo-1H-indazole-3-carboxylic acid (4-fluoro-phenyl)-amide] | ≥ 50% |
| O=C(Nc1ccc(N2CCOCC2)cc1)c1n[nH]c2ccc(Cl)cc12 [Example 74] | ≥ 50% |
| O=C(Nc1cccc(-c2nnn[nH]2)c1)c1n[nH]c2ccc(Cl)cc12 [Example 75] | ≥ 50% |
| CS(=O)(=O)c1cccc(NC(=O)c2n[nH]c3ccc([N+](=O)[O-])cc23)c1 [Example 78] | ≥ 50% |
